Experimental data published in PMC8960591, “PCSK9 acts as a key regulator of Aβ clearance across the blood–brain barrier” (Cellular and Molecular Life Sciences: CMLS, 2022).

Tests used:
5xFAD mice [1] = test: Brain Aβ1–40 and Aβ1–42 ELISA of soluble and insoluble brain fractions after repetitive anti-PCSK9 antibody injection; assay type: in vivo, mouse; conditions: n = 4–14 per group
Description: (§1) 14-weeks-old female 5xFAD transgenic or wildtype littermates were randomized into groups with similar average body weights (18–20 g), respectively. 1 µg/g Alirocumab (Sanofi), Evolocumab (Amgen), or non-specific human IgG2 control antibody (Bio X Cell) in 0.9% isotonic saline solution (BBraun) or the analogous volume of pure 0.9% isotonic saline solution were weekly i.p. injected for a period of 10 weeks. 7 days before starting the injection procedure LRP1^BE−/− was induced by i.p. injection of 75 µg/g tamoxifen (Sigma-Aldrich) for 5 consecutive days and maintained with chow containing 400 mg/kg tamoxifen citrate (LASvendi). To sacrifice animals, mice were anesthetized with 100 µg/g ketamine (Pfizer) in combination with 10 µg/g xylazine (Bayer HealthCare) and euthanized by cervical dislocation.
Extracted blood was supplemented with an EDTA-free protease inhibitor cocktail (Roche Applied Science) and allowed to clot at room temperature for 10 min. Liver were weighed and homogenized in 3 ml/g fresh cold tissue lysis buffer [50 mmol/l Tris (pH 7.4), 150 mmol/l NaCl, 0.1% (w/v) SDS, 1% (v/v) Nonidet P-40, 0.5% (w/v) sodium deoxycholate, 1 mmol/l EDTA (pH 7.4)] containing an EDTA-free protease inhibitor cocktail using the Precellys Lysing Kit (Bertin instruments). Extracts were purified for 3 min (18,620 rcf, 4 °C). CSF samples were isolated via puncture of cisterna magna as described previously and purified for 10 min (1000 rcf, 4 °C). Brains were weighed and soluble and insoluble brain fractions sequential extracted. Initially, homogenization by a glass homogenizer occurred in 6 ml/g PBS, containing an EDTA-free protease inhibitor cocktail and 1 mmol/l EDTA (pH 7.4). The homogenate was centrifuged for 20 min (131,700 rcf, 4 °C) and the supernatant (soluble brain fraction) isolated. Subsequently, the brain pellet was homogenized in 4 ml/g PBS containing 2% (v/v) SDS using the Precellys Lysing Kit. Centrifugation was repeated and the supernatant (insoluble brain fraction) collected. The preparation of capillary-depleted brain fractions based on an established protocol. Briefly, brains were weighed, homogenized by a glass homogenizer in 6 ml/g PBS, and centrifuged for 5 min (1350 rcf, 4 °C). The pellet was resuspended in 3 ml/g PBS, containing 18% dextran (~ 70,000 g/mol; Roth), vortexed thoroughly for 1 min, and centrifuged for 10 min (4863 rcf, 4 °C). Subsequently, the supernatant (capillary-free brain fraction) was transferred, mixed thoroughly with 3 ml/g PBS, and centrifuged for 5 min (1350 rcf, 4 °C). The brain parenchymal pellet was lysed for 20 min using tissue lysis buffer containing an EDTA-free protease inhibitor cocktail and 1 mmol/l EDTA (pH 7.4) and purified for 20 min (18,620 rcf, 4 °C). Each isolated sample was snap frozen via liquid nitrogen and stored at − 80 °C.
The levels of Aβ1–40 and Aβ1–42 in soluble and insoluble brain fractions were blindly determined using Human Amyloid β (FL) Assay Kits (Immuno-Biological Laboratories) according to the manufacturer’s protocol.
Fig. 4 Peripheral PCSK9 inhibition reduces overall Aβ burden. […] Lanes were run on the same gel but were noncontinuous. Aβ1–40 and Aβ1–42 signals were verified by loading peptide standards. Data represent mean ± SEM of n = 4–14 mice per group. For statistical analyses one-way ANOVA followed by Tukey’s multiple comparison test was used (*p < 0.05; **p < 0.01)

5xFAD mice [2] = test: Plaque load quantification by immunofluorescence; assay type: in vivo, mouse; conditions: 6-month-old 5xFAD mice, 1 µg/g Alirocumab for 10 weeks vs 0.9% NaCl, plaques ≥ 80 µm2, mean
Description: as §1, with “To sacrifice animals, mice were anesthetized with 100 µg/g ketamine (Pfizer) in combination with 10 µg/g xylazine (Bayer HealthCare) and euthanized by cervical dislocation.” left out
Mice were transcardially perfused with ice-cold PBS followed by 4% Roti®-Histofix (Roth). […] Within one hemisphere 12 sections were analyzed; 6 representatives for prefrontal cortex (corresponding to bregma from 0.86 to + 0.62 mm) and 6 for the hippocampus (corresponding to bregma from − 1.82 to − 2.06 mm). Plaque load (aggregates ≥ 80 µm^2) was quantified using the NIH ImageJ 1.52 software as described previously.
Fig. 5 Aβ plaque load of prefrontal cortex and hippocampus is reduced due to systemic PCSK9 inhibition. A Prefrontal cortex and B hippocampus of 6-month-old 5xFAD mice treated with 1 µg/g alirocumab or 0.9% NaCl for ten weeks were quantified for amyloid plaques. […]

5xFAD mice [3] = test: Fear conditioning (contextual and cued fear response, behaviour in training phase); assay type: in vivo, mouse; conditions: n = 8–13 per group
Description: as §1
24-week-old female 5xFAD mice LRP1^BEfl/fl or LRP1^BE−/− and wildtype age-matched female littermates treated as described earlier were assessed for contextual and cued fear response adapted to previous studies, using the computerized TSE Multi Conditioning System (TSE GmbH). Movement was assessed by high-resolution infrared sensors (100 Hz) in three dimensions (14 mm distant) and documented by the FCS software. In the training phase, mice were placed in the conditioning chamber for 3 min, followed by a 30-s tone application (72 dB, 9 kHz). During the last 2 s, the tone was accompanied by shock delivery (0.7 mA). Contextual memory testing was performed 24 h-post conditioning, confronting the animals 3 min to the training context without tone application. Cued memory was assessed 2 h later, by pre-exposing the animals 3 min to a non-conditioned context, followed by a tone application for 60 s according to the training session. Freezing behavior (the absence of all but respiratory movements ≥ 2 s), motoric abilities, environmental behavior (% of explored area), and activity (≥ 30 mm/s)/hyperactivity (≥ 200 mm/s) levels were recorded automatically.
Fig. 6 Peripheral PCSK9 inhibition improves contextual memory formation of 5xFAD transgenic mice in a Fear Conditioning paradigm. 6-month-old 5xFAD mice treated with 1 µg/g Alirocumab or 0.9% NaCl for 10 weeks were analyzed for A hippocampus-dependent contextual fear response and B hippocampus-independent cued fear response in comparison to wildtype and LRP1^BE−/− littermates. […] Higher freezing behavior percentage indicates stronger memory formation. Data represent mean ± SEM of n = 8–13 mice per group. For statistical analyses one-way ANOVA followed by Tukey’s multiple comparison test was used (*p < 0.05; **p < 0.01)

5xFAD mice [4] = test: Immunoblot of liver lysates, serum, capillary-depleted brain fractions and CSF; assay type: in vivo, mouse; conditions: 6-month-old 5xFAD mice, 1 µg/g Alirocumab for 10 weeks vs 0.9% NaCl
Description: as §1, with “To sacrifice animals, mice were anesthetized with 100 µg/g ketamine (Pfizer) in combination with 10 µg/g xylazine (Bayer HealthCare) and euthanized by cervical dislocation.” left out
Protein concentrations were determined using the Pierce™ BCA Protein Assay Kit (Thermo Fisher Scientific) according to the manufacturer’s protocol. […]
Fig. 3 Systemic PCSK9 inhibition increases peripheral LRP1 level. A Liver lysates, B serum, as well as C capillary-depleted brain fractions and D CSF samples of 6-month-old 5xFAD mice, treated repetitively with A–C 1 µg/g Alirocumab or D Evolocumab in comparison to A–C 0.9% NaCl or D non-specific human control IgG2 for 10 weeks were evaluated via immunoblot analyses for LRP1 (full length, α-chain, β-chain), LDL receptor, human as well as mouse IgG, and ApoE, and representatively presented. […]

5xFAD mice [5] = test: Serum LDL/VLDL and HDL cholesterol; assay type: in vivo, mouse; conditions: 6-month-old 5xFAD mice, 1 µg/g Evolocumab for 10 weeks vs non-specific human IgG2 control antibody; n = 8–9 per group
Description: as §1
Serum VLDL/LDL and HDL cholesterol were separated and concentrations blindly determined using the Cholesterol Assay Kit—HDL and LDL/VLDL (Abcam) according to the manufacturer’s protocol.
Supplementary Fig. 2 Systemic PCSK9 inhibition reduces serum LDL/VLDL and free PCSK9 levels. (A) Serum LDL/VLDL- and (B) HDL-cholesterol levels of 6-months-old 5xFAD mice, treated repetitively with 1 µg/g Evolocumab or non-specific human IgG2 control antibody for ten weeks were assessed via ELISA. […] Levels of immunoprecipitated PCSK9 were evaluated via immunoblot analyses and representatively presented

PCSK9 = biological target: T1, PCSK9 (Mus musculus, UniProt Q80W65); test: Free circulating PCSK9 in serum (immunoprecipitation with crosslinked Evolocumab, immunoblot); assay type: in vivo; conditions: 6-month-old 5xFAD mice, 1 µg/g Evolocumab for 10 weeks vs non-specific human IgG2 control antibody
T1 construct: substantially decreases the amount of free circulating PCSK9; from tissue; host or cells: serum of 6-month-old 5xFAD mice
T1 sequence (Q80W65 156-694): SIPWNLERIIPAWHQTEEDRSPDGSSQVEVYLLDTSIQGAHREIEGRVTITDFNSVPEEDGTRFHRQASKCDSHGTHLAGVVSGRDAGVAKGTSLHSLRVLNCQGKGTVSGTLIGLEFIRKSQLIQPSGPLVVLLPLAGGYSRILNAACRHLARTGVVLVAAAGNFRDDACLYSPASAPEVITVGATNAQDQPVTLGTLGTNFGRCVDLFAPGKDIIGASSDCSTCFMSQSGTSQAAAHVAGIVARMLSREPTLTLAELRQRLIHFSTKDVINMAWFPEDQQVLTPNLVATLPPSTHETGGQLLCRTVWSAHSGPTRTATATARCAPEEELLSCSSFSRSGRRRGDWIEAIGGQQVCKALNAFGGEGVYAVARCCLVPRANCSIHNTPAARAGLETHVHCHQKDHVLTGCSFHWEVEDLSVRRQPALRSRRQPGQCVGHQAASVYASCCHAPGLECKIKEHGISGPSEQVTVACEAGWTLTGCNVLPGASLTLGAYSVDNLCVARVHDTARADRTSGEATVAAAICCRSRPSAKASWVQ
Description: Precleared serum via raw Protein A Agarose (Roche) was diluted in PBS containing an EDTA-free protease inhibitor cocktail and incubated with Protein A Agarose crosslinked to Evolocumab overnight at 4 °C. Beads were washed three times with PBS, followed by elution in 100 mmol/l glycine (pH 2.7) and neutralization with 500 mmol/l tris (pH 8.0).
Supplementary Fig. 2 Systemic PCSK9 inhibition reduces serum LDL/VLDL and free PCSK9 levels. (A) Serum LDL/VLDL- and (B) HDL-cholesterol levels of 6-months-old 5xFAD mice, treated repetitively with 1 µg/g Evolocumab or non-specific human IgG2 control antibody for ten weeks were assessed via ELISA. Data represents mean ± SEM of n = 8 - 9 mice per group. For statistical analyses unpaired two-tailed t-test was used (*p <0.05). (C) Additionally, serum samples were precleared by using raw Protein A Agarose and incubated with Protein A Agarose crosslinked to Evolocumab. Levels of immunoprecipitated PCSK9 were evaluated via immunoblot analyses and representatively presented

[6] = 5xFAD LRP1BE−/− mice, 1 µg/g Alirocumab for 10 weeks vs 0.9% NaCl
[7] = 6-month-old female 5xFAD mice, 1 µg/g Alirocumab i.p. weekly for 10 weeks vs 0.9% NaCl, mean
[8] = 6-month-old 5xFAD mice, 1 µg/g Alirocumab for 10 weeks vs 0.9% NaCl

| free PCSK9 level in serum (PCSK9) | Molecule | soluble and insoluble Aβ1–40 and Aβ1–42 levels vs control-treated mice (5xFAD mice [1]; [6]) | reduction of insoluble brain Aβ1–40 (5xFAD mice [1]; [7]) | reduction of insoluble brain Aβ1–42 (5xFAD mice [1]; [7]) | reduction of soluble brain Aβ1–40 (5xFAD mice [1]; [7]) | reduction of soluble brain Aβ1–42 (5xFAD mice [1]; [7]) | reduction of plaque load, hippocampus (5xFAD mice [2]; n = 3–4 per group) | reduction of plaque load, prefrontal cortex (5xFAD mice [2]; n = 8 per group) | hippocampus-dependent learning capacity (contextual fear) (5xFAD mice [3]; [6]) | hippocampus-independent cued fear response (5xFAD mice [3]; 5xFAD, 5xFAD LRP1BE−/− and wildtype littermates, PCSK9 inhibition or control, 2 h after contextual test) | contextual fear response (freezing) vs control-treated 5xFAD mice (5xFAD mice [3]; 6-month-old 5xFAD mice, 1 µg/g Alirocumab for 10 weeks vs 0.9% NaCl, 24 h post-training) | activity and hyperactivity levels and basal freezing during the conditioning phase (5xFAD mice [3]; [8]) | motoric abilities and environmental behavior during the conditioning phase (5xFAD mice [3]; [8]) | contextual freezing vs control-treated wildtype littermates (5xFAD mice [3]; 6-month-old 5xFAD mice, 1 µg/g Alirocumab for 10 weeks, 24 h post-training) | contextual freezing, treated vs control-treated wildtype animals (5xFAD mice [3]; wildtype littermates, 1 µg/g Alirocumab for 10 weeks vs 0.9% NaCl) | peripheral LRP1 level (liver lysates) (5xFAD mice [4]) | serum LDL/VLDL-cholesterol level (5xFAD mice [5]) |
| --- | --- | --- | --- | --- | --- | --- | --- | --- | --- | --- | --- | --- | --- | --- | --- | --- | --- |
| – | Alirocumab: FDA-approved monoclonal anti-PCSK9 antibody (Sanofi) | no significant difference | ~ 44% | ~ 38% | ~ 58% | ~ 51% | ~ 23% | ~ 17% | do not significantly benefit | no significant differences | significant increased | No differences | No differences | no significant difference | did not detect any significant difference | increases | – |
| reduces | Evolocumab: FDA-approved monoclonal anti-PCSK9 antibody (Amgen) (antibody, chains of the INN, looked up, V domains shown) VH: EVQLVQSGAEVKKPGASVKVSCKASGYTLTSYGISWVRQAPGQGLEWMGWVSFYNGNTNYAQKLQGRGTMTTDPSTSTAYMELRSLRSDDTAVYYCARGYGMDVWGQGTTVTVSS VL: ESALTQPASVSGSPGQSITISCTGTSSDVGGYNSVSWYQQHPGKAPKLMIYEVSNRPSGVSNRFSGSKSGNTASLTISGLQAEDEADYYCNSYTSTSMVFGGGTKLTVL | – | – | – | – | – | – | – | – | – | – | – | – | – | – | – | reduces |
